Data published in patent publication US20240366602A1, “COMBINATION THERAPY OF APELIN RECEPTOR AGONIST AND GLP-1 RECEPTOR AGONIST FOR TREATING A DISEASE OR CONDITION ASSOCIATED WITH WEIGHT GAIN” (BioAge Labs, Inc., priority 2023, published 2024).
Entries after “also recorded” stand apart in the source; their conditions may differ.

Tests used:
[1] = tested on: Diet-Induced Obese (DIO) mice; assay: Pilot study of BGE-105 in aged DIO mice treated with semaglutide (Example 1); assay type: in vivo
From the text: Endpoints and measurements used to assess effects included: • Body Weight, Clinical Evaluation & Body Condition Score; • Group Food Intake, Water Intake; • Fed Glucose; • Body composition by Echo-MRI; • Baseline and endpoint grid hang tests; and • Endpoint tissue harvest.
25-month-old (aged) C57BL/6 female mice were used in this study. Diet for 25-month-old C57BL/6 mice included lean control D12450B (10 kcal % fat), or a diet induced-obesity (DIO) diet D12492 (60 kcal % fat) (Research Diets, Inc.). The study duration was 37 days. Treatment started on Day 0 and ended on Day 35-36.
Semaglutide was purchased from MCE (Cat No. HY-114118/CS-0069903)
Mice from all Groups (1-5) were measured with fed glucose, and body weight and body composition for randomization.
Body weight, group food intake, group water intake, body composition and grid hang tests were measured and monitored during the study.
On the day of necropsy, blood plasma and tissue samples were collected.

[2] = Phase 1 study BGE-105-101 Part A (SAD) pharmacokinetics after IV infusion; assay type: in vivo, human; conditions: for Dose-normalized AUCinf / Dose-normalized Cmax: Mean, unit assumed
Method: (§1) In Part A, of 24 subjects enrolled (3 SAD cohorts, 8 subjects each), a total of at least 12 subjects are ≥65 years of age (≥4 subjects in each cohort). The remaining subjects are ≥18 years old.
(§2) After a baseline period of 24 hours in the clinic, all subjects receive a LD, 1-hour infusion on Day 1. After a 48-hour wash-out period, in which PK and PK/PD data iscollected, subjects receive a 23-hour infusion (1-hour LD followed by a 22-hour maintenance dose). See FIG. 45 for the different dose levels in each SAD cohort. See e.g., Table 33 below. Part A is double-blinded. The cohorts of Part A is conducted sequentially starting with SAD cohort 1.
On Day 1 for Part A, subjects receive LD, 1-hour infusion. On Day 3, after a 48-hour washout period, subjects then receive a 23-hour infusion (1-hour LD followed by a 22-hour MD). No earlier than 24 hours after the end of infusion, subjects is discharged from the clinic on Day 5 (End of Treatment Period [EOTP]). A treatment protocol for the SAD cohorts of Part A is described below: • a. Predose assessments (vital signs and PK assessments) should be done within 30 min of the start of infusion. • b. Vital signs include diastolic and systolic blood pressure and pulse. In addition, temperature and respiratory rate should be collected on predose Day 1 and EOT Day 5. • c. Safety laboratory tests include complete blood count, clinical chemistries, and urinalysis. • d. Assessments should be done within 1 hour after the end of the LD infusions on Day 1 and Day 3. • e. AEs was recorded from the start time of the first BGE-105 or placebo study drug infusion until the end of the subject's participation in the study. At discharge from the unit, any ongoing AEs was documented in source and in EDC be followed until the event is resolved or stabilized. Any new AEs occurring after discharge will clearly note the start date and end date. • f. Study drug was administered via IV infusion as a LD, 1-hour infusion on Day 1. After a 48-hour wash-out, study drug will then be administered as a 23-hour infusion (1-hour LD followed by a 22-hour MD). • g. Continuous cardiac ECG telemetry monitoring was used, continuing through the end of dosing on Day 4. • h. Blood samples for plasma insulin and glucose monitoring should be collected in the morning, before breakfast and after fasting overnight. • i. Assessments can be done any time after 24 hours after the end of infusion and before discharge.
Relevant plasma PK parameters are derived for BGE-105 by standard noncompartmental methods and tabulated along with descriptive statistics and graphs.

healthy adult subjects = assay: Phase 1 Part A (SAD) insulin resistance (HOMA-IR); assay type: in vivo, human; conditions: SAD cohorts 1, 2, 3; Day 3 Predose and Day 4 visits; largest decrease in cohort 3
Method: as §1
Biomarkers including, but not limited to changes in: • Plasma glucose • Plasma insulin • Insulin resistance (HOMA-IR)
as §2
Blood samples (4 mL) for plasma insulin and glucose monitoring are collected in the morning, before breakfast and after fasting overnight at timepoints described previously.
Data is analyzed as change from baseline within each dose cohort and treatment group. Treatment comparisons are made as a linear contrast of all treated compared to all placebo and for each individual dose cohort versus all placebo based on time-matched samples acquired during the 24-hour period on Day −1. P-values are reported uncorrected for multiplicity.

[3] = 9-month oral toxicity study in dogs; assay type: in vivo; conditions: dog
Method: The updated exposure margins considering the highest maximum exposures in rats and dogs are calculated as follows: • Maximum exposure in the rat (male) was in the 14-day IV study and at the 300 mg/kg dose, the AUClast is 1070 μg*hr/mL. • Maximum exposure in dogs occurred at the 300 mg/kg dose in the 9-month oral toxicity study and the AUClast is 1310*μg·hr/mL.

[4] = tested on: healthy older adult humans; assay: BGE-105 in immobilized human muscles, 10 days bed rest (Example 11); assay type: in vivo; conditions: 200 mg of BGE-105 a day
From the text: Two groups of healthy older adult humans (e.g., n=10 per group) who are moderately active remain in bed continuously for 10 days, except for toileting, and they consume a eucaloric diet providing the recommended dietary allowance for protein (0.8 g/kg of protein per day). […] Measurements before and after bed rest include muscle function and protein synthesis.

[5] = tested on: healthy volunteers aged≥65 years; assay: Phase 1b Part B (MD) safety; assay type: in vivo, human
Method: The Safety Analysis Set is used for safety analysis. Subjects is analyzed based on the actual treatment received.
The double-blind, placebo-controlled clinical trial evaluated the safety and pharmacodynamics of BGE-105.

[6] = tested on: immortalized muscle precursor cells from human patients; conditions: cited from earlier work
immobilized aged mice = immobilized aged mice (20-months-old), orally dosed, vs control vehicle; cited from earlier work

For `COc1cccc(OC)c1-n1c(NS(=O)(=O)[C@@H](C)[C@H](C)c2ncc(C)cn2)nnc1-c1cncc(C)c1` [BGE-105, (2S,3R)—N-(4-(2,6-dimethoxyphenyl)-5-(5-methyl-3-pyridinyl)-4H-1,2,4-triazol-3-yl)-3-(5-methyl-2-pyrimidinyl)-2-butanesulfonamide], the “Muscle function, grid hang test (latency before mice fell from the grid)” value ([1]; semaglutide 100 nmol/kg, BGE-105 1.1 mg/mL, combination compared to either agent alone) was “increased muscle function”, the “Weight of perigonadal fat at study endpoint” value ([1]; semaglutide 100 nmol/kg, BGE-105 1.1 mg/mL, combination loss statistically significant) was “statistically insignificant loss in perigonadal fat” and the “Quadriceps weight as a percentage of total body weight at study endpoint” value ([1]; semaglutide 100 nmol/kg, BGE-105 1.1 mg/mL, vs DIO control mice) was “increased quadricep weight as a percentage of total body weight, but the increases did not achieve statistical significance”. The “neutrophil gelatinase-associated lipocalin (NGAL) level at study endpoint” value ([1]; vs DIO control mice) was “decreased plasma NGAL level”, the “Dose proportionality of Cmax and AUC” value ([2]; 3 SAD cohorts, 95% confidence interval for slope includes 1) was “demonstrated dose proportionality; also recorded: linear across the dose range” and the Dose-normalized AUCinf ([2]; SAD1 (60 mg/360 mg) Day 1) was 0.66 µg·h/mL/mg. The Dose-normalized Cmax ([2]; SAD1 (60 mg/360 mg) Day 1) was 0.12 µg/mL/mg, the Dose-normalized AUCinf ([2]; SAD2 (120 mg/720 mg) Day 1) was 0.49 µg·h/mL/mg and the Dose-normalized Cmax ([2]; SAD2 (120 mg/720 mg) Day 1) was 0.11 µg/mL/mg. The Dose-normalized AUCinf ([2]; SAD3 (240 mg/1440 mg) Day 1) was 0.5 µg·h/mL/mg, the Dose-normalized Cmax ([2]; SAD3 (240 mg/1440 mg) Day 1) was 0.11 µg/mL/mg and the “Percent change from baseline in HOMA-IR” value (healthy adult subjects) was “decrease in the percent change from baseline in HOMA-IR”. The NOAEL [3] was “maximum dose tested”, the “Muscle atrophy in immobilized human muscles” value [4] was “prevent or attenuate muscle atrophy” and the Tolerability ([5]; Part B study) was “well tolerated”. The Serious adverse effects ([5]; volunteers≥65 years old, 10 days of bed rest) was “no serious adverse effects”, the “Cell growth and differentiation” value [6] was “dose-dependent relationship between cell growth and differentiation, and concentration of BGE-105” and the Muscle atrophy (immobilized aged mice) was “significantly reduced muscle atrophy”.
